The test concerns the target T1, TEK (Tie2) (Homo sapiens, UniProt Q02763).
T1 construct: purchased Thermo Fisher Scientific (Life Technologies) SelectScreen
The test can be described thus: SelectScreen Z'LYTE. It is filed as biochemical. In a few lines:
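NU5455 was profiled across the SelectScreen Broad panel of kinase activity and binding assays. Z'LYTE reactions such as CSF1R ran at apparent Km ATP, while the Adapta CAMK1 assay used ATP listed as 10. Values are given as percent.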

Among the data in paper PMC6934184, “Selective DNA-PKcs inhibition extends the therapeutic index of localized radiotherapy and chemotherapy” (The Journal of Clinical Investigation, 2019) are inhibition values, retold here.

T1 sequence (Q02763 23-1124): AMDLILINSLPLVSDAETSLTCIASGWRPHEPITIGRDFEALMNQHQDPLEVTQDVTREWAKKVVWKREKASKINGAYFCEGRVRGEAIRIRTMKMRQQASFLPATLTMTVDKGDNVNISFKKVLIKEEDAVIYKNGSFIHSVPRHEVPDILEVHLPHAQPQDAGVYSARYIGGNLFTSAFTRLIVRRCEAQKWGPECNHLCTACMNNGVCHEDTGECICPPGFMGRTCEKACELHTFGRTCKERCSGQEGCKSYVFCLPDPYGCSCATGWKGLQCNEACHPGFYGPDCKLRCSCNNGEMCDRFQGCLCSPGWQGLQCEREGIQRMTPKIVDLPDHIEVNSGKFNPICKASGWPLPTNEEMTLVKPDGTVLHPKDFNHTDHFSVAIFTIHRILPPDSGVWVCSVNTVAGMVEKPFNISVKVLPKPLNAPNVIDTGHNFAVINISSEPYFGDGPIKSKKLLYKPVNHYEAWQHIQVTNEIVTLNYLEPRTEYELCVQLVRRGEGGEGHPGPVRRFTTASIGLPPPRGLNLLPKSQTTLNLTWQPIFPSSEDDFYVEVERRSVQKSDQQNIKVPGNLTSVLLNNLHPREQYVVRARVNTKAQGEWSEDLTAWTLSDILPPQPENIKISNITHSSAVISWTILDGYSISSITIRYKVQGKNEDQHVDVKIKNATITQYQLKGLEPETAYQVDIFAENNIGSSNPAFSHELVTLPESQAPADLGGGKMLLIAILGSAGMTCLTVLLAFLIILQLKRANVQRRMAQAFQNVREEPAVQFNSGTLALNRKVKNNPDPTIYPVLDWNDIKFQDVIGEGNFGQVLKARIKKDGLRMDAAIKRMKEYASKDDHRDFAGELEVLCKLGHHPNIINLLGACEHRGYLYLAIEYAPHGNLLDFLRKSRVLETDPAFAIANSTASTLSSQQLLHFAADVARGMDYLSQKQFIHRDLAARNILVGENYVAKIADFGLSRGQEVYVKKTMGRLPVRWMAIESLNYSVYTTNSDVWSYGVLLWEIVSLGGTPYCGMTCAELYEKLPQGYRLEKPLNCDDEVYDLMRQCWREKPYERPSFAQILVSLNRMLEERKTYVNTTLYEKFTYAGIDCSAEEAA

On to `CN(C(=O)CN1CCOCC1)c1ccc2sc3c(-c4cccc5c(=O)cc(N6CC7CCC(C6)O7)oc45)cccc3c2c1` [NU5455], for which the inhibition (in general, the relative decrease from the control value, in per cent) at 1 µM was -0.1%.
